From patent publication US20080139574A1, “Novel quinoline derivatives” (CADILA HEALTHCARE LIMITED, priority 2006, published 2008) come the findings set out here.

For data set [1], the system named is Bacillus pumilis ATCC 14884. The data set can be described thus: In vitro MIC, broth micro dilution. Format: cell-based. Particulars: ATCC14884. How it is done:
(§1) The in vitro (MIC) antibacterial activity of the compounds against susceptible Gram-positive, multidrug resistant Gram-positive and Gram-negative was tested as growth inhibition with the use of broth micro dilution method according to the guidelines of Clinical and Laboratory Standards Institute (formerly National Committee for Clinical Laboratory Standards). Compounds were dissolved in DMSO and water was added to get stock solution in 80% DMSO. The working solution was prepared by diluting the stock solution 1:10 times in 4-8% DMSO in water or medium, and the dissolved compounds were evaluated in the concentrations of 0.125, 0.25, 0.5, 1, 2, 4, 8, and 16 μg/mL and the concentration was finally expressed in μM.

The test system of data set [2] is Staphylococcus aureus ATCC 9144. The data set can be described thus: In vitro MIC, broth micro dilution. Conditions: ATCC9144. It counts as cell-based. The protocol:
as §1

Data set [3] concerns Streptococcus pyogens ATCC 14289. The data set can be described thus: In vitro MIC, broth micro dilution. Format: cell-based. Conditions: ATCC14289. The protocol: as §1
Data set [4] deals with Enterococcus faecium ATCC 51559. The data set can be described thus: In vitro MIC, broth micro dilution. Format: cell-based. Conditions: ATCC51559. The protocol: as §1
The test system of data set [5] is Enterococcus faecalis ATCC 700802. The data set can be described thus: In vitro MIC, broth micro dilution. It counts as cell-based. Particulars: ATCC700802. How it is done: as §1
The test system of data set [6] is Enterococcus faecalis ATCC 35550. The data set can be described thus: In vitro MIC, broth micro dilution. It counts as cell-based. Particulars: ATCC35550. How it is done:
as §1

The test system of data set [7] is Klebsiella pneumoniae ATCC 10031. The data set can be described thus: In vitro MIC, broth micro dilution. It counts as cell-based. Conditions: ATCC10031. How it is done:
as §1

The subject of data set [8] is Staphylococcus aureus ATCC 700699. The data set can be described thus: In vitro MIC, broth micro dilution. Format: cell-based. Particulars: ATCC700699. The protocol:
as §1

In data set [9] the test system is Staphylococcus aureus ATCC 25923. The data set can be described thus: In vitro MIC, broth micro dilution. Format: cell-based. Conditions: ATCC25923. The protocol: as §1
For data set [10], the system named is Klebsiella pneumoniae ATCC 700571. The data set can be described thus: In vitro MIC, broth micro dilution. Format: cell-based. Conditions: ATCC700571. How it is done:
as §1

The subject of data set [11] is Staphylococcus aureus ATCC 14154. The data set can be described thus: In vitro MIC, broth micro dilution. Format: cell-based. Particulars: ATCC14154. How it is done: as §1
The subject of data set [12] is Streptococcus pneumoniae ATCC 700904. The data set can be described thus: In vitro MIC, broth micro dilution. It counts as cell-based. Conditions: ATCC700904. How it is done: as §1
Data set [13] has as its system Enterococcus faecalis ATCC 14506. The data set can be described thus: In vitro MIC, broth micro dilution. It counts as cell-based. Conditions: ATCC14506. How it is done:
as §1

Data set [14] concerns Enterococcus faecium ATCC 700221. The data set can be described thus: In vitro MIC, broth micro dilution. It counts as cell-based. Conditions: ATCC700221. The protocol:
as §1

The test system of data set [15] is Staphylococcus epidermidis ATCC 155. The data set can be described thus: In vitro MIC, broth micro dilution. It counts as cell-based. Particulars: ATCC155. How it is done:
as §1

Data set [16] has as its system Bacillus cereus ATCC 11778. The data set can be described thus: In vitro MIC, broth micro dilution. Format: cell-based. Conditions: ATCC11778. How it is done:
as §1

Data set [17] relates to Pseudomonas aeruginosa ATCC 27853. The data set can be described thus: In vitro MIC, broth micro dilution. It counts as cell-based. Conditions: ATCC27853. The protocol:
as §1

Data set [18] concerns Staphylococcus aureus ATCC 29213. The data set can be described thus: In vitro MIC, broth micro dilution. Particulars: ATCC29213. It counts as cell-based. How it is done:
as §1

The next data set concerns ATCC 700603. The data set can be described thus: In vitro MIC, broth micro dilution. It counts as cell-based. Conditions: ATCC700603; Staphylococcus pyogens ATCC 700603. The protocol:
as §1

Another data set is described as follows: in vivo. Conditions: male, Sprague-Dawley, rat, po, 30 mg/kg.

In brackets after ≈: the same amount, converted by molar mass.

For orientation: MIC means the lowest concentration found to suppress growth. A high value points to a less susceptible organism. Usually AUC stands for the area under the concentration-time curve, a measure of exposure. A word on the Cmax: it is the peak of the concentration-time curve. As usually defined, the Tmax is the time at which the peak concentration occurs. The term half-life denotes the time in which the quantity being followed falls by half. `COc1ccc2c(c1)CCC(CN1CCN(c3cc4c(cc3F)c(=O)c(C(=O)O)cn4C3CC3)CC1)C2=O` (centres unmarked) [Compound 1, 1-Cyclopropyl-6-fluoro-7-[4-(6-methoxy-1-oxo-1,2,3,4-tetrahydro-naphthalen-2-ylmethyl)-piperazin-1-yl]-4-oxo-1,4-dihydro-quinoline-3-carboxylic acid]: the MIC in data set [1] was 1.56 µM (≈ 0.812 µg/mL); in [2], 1.56 µM (≈ 0.812 µg/mL); in [3], 1.56 µM (≈ 0.812 µg/mL); in data set [4] it was greater than 50 µM; in data set [5], 12.5 µM (≈ 6.49 µg/mL); in [6], 3.12 µM (≈ 1.62 µg/mL). Also, the MIC in data set [7] is no more than 0.391 µM; in data set [8], greater than 50 µM; in data set [9] it was 1.56 µM (≈ 0.812 µg/mL); in data set [10], 6.25 µM (≈ 3.25 µg/mL); in data set [11], 1.56 µM (≈ 0.812 µg/mL); in data set [12] it was 3.12 µM (≈ 1.62 µg/mL). The MIC amounted to 12.5 µM (≈ 6.49 µg/mL) in [13]; 25 µM (≈ 13 µg/mL) in data set [14]; 0.781 µM (≈ 0.406 µg/mL) in data set [15]; 3.12 µM (≈ 1.62 µg/mL) in data set [16]; 3.12 µM (≈ 1.62 µg/mL) in data set [17]; 3.12 µM (≈ 1.62 µg/mL) in [18]. Also, it took 12.5 µM (≈ 6.49 µg/mL) to inhibit growth against ATCC 700603 (MIC). The compound further gave an exposure (AUC) in “in vivo” of 85.8 ± 39.9 µg·h/mL. Moreover, in “in vivo”, the highest level (Cmax) was 10.6 ± 2.61 µg/mL. Further, the Tmax in “in vivo” was 4 h. In the data set “in vivo”, this compound showed a half-life of 9.55 ± 2.83 h.

As for `O=C(O)c1cn(C2CC2)c2cc(N3CCN(CC4CCOc5cc(Cl)ccc5C4=O)CC3)c(F)cc2c1=O` (centres unmarked) [Compound 6, 7-[4-(8-Chloro-5-oxo-2,3,4,5-tetrahydro-benzo[b]oxepin-4-ylmethyl)-piperazin-1-yl]-1-cyclopropyl-6-fluoro-4-oxo-1,4-dihydro-quinoline-3-carboxylic acid], the MIC was 0.781 µM (≈ 0.422 µg/mL) in data set [1]; 0.781 µM (≈ 0.422 µg/mL) in data set [2]; 0.781 µM (≈ 0.422 µg/mL) in [3]; 50 µM (≈ 27 µg/mL) in data set [4]; 6.25 µM (≈ 3.37 µg/mL) in [5]; 6.25 µM (≈ 3.37 µg/mL) in [6]. The MIC in data set [7] was no more than 0.391 µM; in data set [8] it was 25 µM (≈ 13.5 µg/mL); in data set [9] it was 0.781 µM (≈ 0.422 µg/mL); in [10] it was 1.56 µM (≈ 0.844 µg/mL); in data set [11] it was 1.56 µM (≈ 0.844 µg/mL); in data set [12], 3.12 µM (≈ 1.69 µg/mL). Besides, the MIC was 6.25 µM (≈ 3.37 µg/mL) in data set [13]; 50 µM (≈ 27 µg/mL) in data set [14]; no more than 0.391 µM in data set [15]; 1.56 µM (≈ 0.844 µg/mL) in data set [16]; 0.781 µM (≈ 0.422 µg/mL) in data set [17]; 1.56 µM (≈ 0.844 µg/mL) in [18]. Besides, the MIC in the data set on ATCC 700603 is 12.5 µM (≈ 6.75 µg/mL). The compound also had an exposure (AUC) in the data set “in vivo” of 7.4 ± 1.78 µg·h/mL. This compound also came in with a Cmax in the data set “in vivo” of 2.36 ± 1.07 µg/mL. Besides, the time of peak concentration (Tmax) in the data set “in vivo” is 1.33 ± 0.53 h. The half-life in “in vivo” was 1.66 ± 0.73 h.

In the case of `CCn1cc(C(=O)O)c(=O)c2cc(F)c(N3CCNCC3)cc21` [Norfloxacin, reference compound], the minimal inhibitory concentration (MIC) is 6.25 µM (≈ 2 µg/mL) in [1]; 1.56 µM (≈ 0.499 µg/mL) in data set [2]; 3.12 µM (≈ 0.998 µg/mL) in data set [3]; greater than 50 µM in data set [4]; 25 µM (≈ 7.98 µg/mL) in data set [5]; 6.25 µM (≈ 2 µg/mL) in data set [6]. Besides, the MIC in data set [7] is no more than 0.391 µM; in data set [8] it was greater than 50 µM; in data set [9], 3.12 µM (≈ 0.998 µg/mL); in data set [10], 6.25 µM (≈ 2 µg/mL); in data set [11], 3.12 µM (≈ 0.998 µg/mL); in data set [12], 1.56 µM (≈ 0.499 µg/mL). For the same compound, the MIC in data set [13] was 25 µM (≈ 7.98 µg/mL); in [14], greater than 50 µM; in data set [15], 0.781 µM (≈ 0.249 µg/mL); in data set [16] it was 3.12 µM (≈ 0.998 µg/mL); in data set [17], 3.12 µM (≈ 0.998 µg/mL); in data set [18], 3.12 µM (≈ 0.998 µg/mL). Besides, in the data set with ATCC 700603, the MIC is greater than 50 µM.
